The test system of data set [1] is HeLa. Kind of data set: Cytotoxicity against human HeLa cells after 48 hrs by MTT assay. Type of data set: functional, cell-based. Background: Formazan colour is commonly taken as a measure of viable cells.
Data set [2] concerns MOLT-4. Put plainly: Cytotoxicity against human MOLT4 cells after 48 hrs by MTT assay. Type of data set: functional, cell-based. The settings on record: MOLT-4, 48 h.
For data set [3], the system named is KB. Put plainly: Cytotoxicity against human KB cells after 48 hrs by MTT assay. Type of data set: functional, cell-based.
In data set [4] the test system is PC-3. Kind of data set: Cytotoxicity against human PC3 cells after 48 hrs by MTT assay. Type of data set: functional, cell-based. Particulars: PC-3, 48 h; call rule not given here.
The subject of data set [5] is DU-145. Kind of data set: Cytotoxicity against human DU145 cells after 48 hrs by MTT assay. Particulars: DU-145, 48 h. Type of data set: functional, cell-based.
Data set [6] relates to Plasmodium falciparum. Put plainly: Antimalarial activity against chloroquine-sensitive Plasmodium falciparum D6 infected in RBC assessed as plasmodial LDH activity after 72 hrs. Type of data set: functional, organism-based.
The test system of data set [7] is Plasmodium falciparum. Kind of data set: Antimalarial activity against chloroquine-resistant Plasmodium falciparum W2 infected in RBC assessed as plasmodial LDH activity after 72 hrs. The class given is functional, organism-based.
The nature of data set [8]: Selectivity index, ratio of IC50 for african green monkey Vero cells to IC50 for chloroquine-sensitive Plasmodium falciparum D6. The class given is toxicity, cell-based. The settings on record: read-out: Ratio IC50.
Data set [9] can be described thus: Selectivity index, ratio of IC50 for african green monkey Vero cells to IC50 for chloroquine-resistant Plasmodium falciparum W2. Type of data set: toxicity, cell-based. Particulars: read-out: Ratio IC50.
The test system of data set [10] is Vero. Put plainly: Cytotoxicity against african green monkey Vero cells up to 9 uM after 48 hrs by neutral red assay. Type of data set: cell-based. The settings on record: chlorocebus sabaeus.
[11] abbreviates: Plasmodium falciparum, D6, 72 h, read-out: IC50.
[12] abbreviates: Plasmodium falciparum, W2, 72 h, read-out: IC50.

These results are taken from ChEMBL document CHEMBL2311414, “Synthesis, antimalarial activity and cytotoxic potential of new monocarbonyl analogues of curcumin” (Bioorg Med Chem Lett, 2013).

Structures are written as SMILES.

Consider `COc1cc(/C=C2\CC/C(=C\c3ccc(OCCN4CCCCC4)c(OC)c3)C2=O)ccc1OCCN1CCCCC1`, for which the half-inhibitory concentration (IC50) (usually the midpoint of a concentration-inhibition curve) in data set [1] is 400 nM; in [2] it was 20 nM; in data set [3], 4400 nM; in data set [4] it was > 5000 nM; in data set [5], > 5000 nM; in data set [6] (setting [11]), 500 nM. Moreover, the 50% inhibitory concentration (IC50) in [7] (setting [12]) was found to be 530 nM. The selectivity ratio was > 16.4 in data set [8] and > 15.4 in data set [9]. In addition, in [10], the Activity entry is “Non-toxic”.
`Cc1nccn1CCOc1ccc(/C=C2\CC/C(=C\c3ccc(OCCn4ccnc4C)cc3)C2=O)cc1`: the concentration for half-maximal inhibition (IC50) in data set [6] (setting [11]) was determined as 350 nM; in [7] (setting [12]) it was 430 nM. Also, the selectivity ratio in [8] is > 26.4; in data set [9], > 21.6. Moreover, in data set [10], the Activity result was “Non-toxic”.
The matching figures for `COc1cc(/C=C2\CC/C(=C\c3ccc(OCCCCn4ccnc4C)c(OC)c3)C2=O)ccc1OCCCCn1ccnc1C`: 4000 nM, 4480 nM, > 1.9, > 1.7 and “Non-toxic”.
The matching figures for `Cc1nccn1CCCCOc1ccc(/C=C2\CC/C(=C\c3ccc(OCCCCn4ccnc4C)cc3)C2=O)cc1`: 1090 nM, 1410 nM, > 7.7, > 6 and “Non-toxic”.
With `COc1cc(/C=C2\CC/C(=C\c3ccc(OCCn4ccnc4C)c(OC)c3)C2=O)ccc1OCCn1ccnc1C`, the IC50 in [1] was 900 nM; in data set [2], 100 nM; in data set [3] it was 3400 nM; in data set [4] it was > 5000 nM; in data set [5], > 5000 nM; in data set [6] (setting [11]), 1280 nM. Further, the IC50 in [7] (setting [12]) was 1380 nM. Moreover, the selectivity ratio in data set [8] is > 6.5; in [9], > 6. The Activity result in [10] is listed as “Non-toxic”.
Turning to `O=C1/C(=C/c2ccc(OCCCCN3CCCCC3)cc2)CCC/C1=C\c1ccc(OCCCCN2CCCCC2)cc1`, the IC50 in data set [1] was found to be 3630 nM; in data set [2], 730 nM; in data set [3], 2540 nM; in data set [4], 1530 nM; in data set [5] it was 2110 nM.
Turning to `COc1cc(/C=C2\CC/C(=C\c3ccc(OCCn4ccnc4)c(OC)c3)C2=O)ccc1OCCn1ccnc1`, the IC50 in [6] (setting [11]) came to 2210 nM; in data set [7] (setting [12]) it was 1810 nM. The selectivity ratio in data set [8] was > 4; in data set [9], > 4.9. Moreover, the Activity result in data set [10] was “Non-toxic”.
On to `O=C1/C(=C/c2ccc(OCCCCN3CCOCC3)cc2)CC/C1=C\c1ccc(OCCCCN2CCOCC2)cc1`, for which the concentration for half-maximal inhibition (IC50) result in data set [6] and in [7] was “Not Active” in each case. In addition, in [10], the Activity entry is “Non-toxic”.
For `CN(C)CCCCOc1ccc(/C=C2\CC/C(=C\c3ccc(OCCCCN(C)C)cc3)C2=O)cc1`, the concentration for half-maximal inhibition (IC50) in data set [1] was 6800 nM; in data set [2], 330 nM; in [3] it was 1650 nM; in data set [4], 2900 nM; in [5], 4400 nM.
In the case of `COc1cc(/C=C2\CC/C(=C\c3ccc(OCCCCN4CCCCC4)c(OC)c3)C2=O)ccc1OCCCCN1CCCCC1`, the 50% inhibitory concentration (IC50) was 490 nM in data set [1]; 320 nM in data set [2]; 550 nM in [3]; 500 nM in data set [4]; 460 nM in data set [5]; 1740 nM in [6] (setting [11]). For the same compound, the IC50 in [7] (setting [12]) amounted to 2850 nM. Also, the selectivity ratio in data set [8] is > 4.3; in [9] it was > 2.6. Further, the Activity entry in data set [10] is listed as “Non-toxic”.
As to `COc1cc(/C=C2\CC/C(=C\c3ccc(OCCBr)c(OC)c3)C2=O)ccc1OCCBr`, the half-inhibitory concentration (IC50) entry in data set [6] and in data set [7] was “Not Active” each time. For the same compound, in [10], the Activity entry is recorded as “Non-toxic”.
Turning to `O=C1/C(=C/c2ccc(OCCn3ccnc3)cc2)CC/C1=C\c1ccc(OCCn2ccnc2)cc1`, the 50% inhibitory concentration (IC50) in data set [6] (setting [11]) came to 450 nM; in [7] (setting [12]), 370 nM. The selectivity ratio in data set [8] was > 21.6; in data set [9], > 26.4. Besides, in data set [10], the Activity result is on record as “Non-toxic”.
For the compound `COc1cccc2c1C(=O)c1c(O)c3c(c(O)c1C2=O)C[C@@](O)(C(=O)CO)C[C@@H]3O[C@H]1C[C@H](N)[C@H](O)[C@H](C)O1` [DOXORUBICIN], the IC50 in data set [1] worked out at 2200 nM; in data set [3], 330 nM; in [4], 200 nM; in [5], 200 nM.
As for `COc1cc(/C=C2\CC/C(=C\c3ccc(OCCN(C)C)c(OC)c3)C2=O)ccc1OCCN(C)C`, the half-maximal inhibitory concentration (IC50) in data set [1] is 500 nM; in [2] it was 30 nM; in [3] it was > 5000 nM; in [4] it was > 5000 nM; in data set [5], > 5000 nM; in [6] (setting [11]), 440 nM. In addition, the IC50 in data set [7] (setting [12]) came to 620 nM. Further, the selectivity ratio in data set [8] was > 21.6; in [9] it was > 15.4. Further, in data set [10], the Activity entry is given as “Non-toxic”.
Turning to `C[C@@H]1CC[C@H]2[C@@H](C)C(=O)O[C@@H]3O[C@@]4(C)CC[C@@H]1[C@]32OO4` [ARTEMISININ], the IC50 stood at 19 nM in data set [6] (setting [11]) and 11 nM in [7] (setting [12]). Further, the values for the selectivity ratio in data set [8] and in data set [9] were > 470 and > 800, respectively. Besides, the Activity entry in [10] is “Non-toxic”.
Turning to `COc1cc(/C=C2\CC/C(=C\c3ccc(OCCCN(C)C)c(OC)c3)C2=O)ccc1OCCCN(C)C`, the half-maximal inhibitory concentration (IC50) is 640 nM in [1]; 430 nM in [2]; 200 nM in data set [3]; 1500 nM in data set [4]; 430 nM in data set [5]; 1140 nM in data set [6] (setting [11]). For the same compound, the half-inhibitory concentration (IC50) in [7] (setting [12]) turned out to be 1530 nM. Moreover, the selectivity ratio was > 7.9 in data set [8] and > 6 in [9]. The Activity entry in data set [10] is on record as “Non-toxic”.
`CCN(CC)CCCC(C)Nc1ccnc2cc(Cl)ccc12` (configuration not stated) [CHLOROQUINE]: the Activity result in data set [10] is recorded as “Non-toxic”.
As for `O=C1/C(=C/c2ccc(OCCCCN3CCOCC3)cc2)CCC/C1=C\c1ccc(OCCCCN2CCOCC2)cc1`, the half-inhibitory concentration (IC50) entry in data set [6] and in data set [7] was “Not Active” each time. In data set [10], the Activity entry is “Non-toxic”.
For `COc1cc(/C=C2\CC/C(=C\c3ccc(OCCCCN4CCCCCC4)c(OC)c3)C2=O)ccc1OCCCCN1CCCCCC1`, the 50% inhibitory concentration (IC50) is 1390 nM in data set [1]; 410 nM in data set [2]; 2250 nM in data set [3]; 300 nM in data set [4]; 1010 nM in [5]; 1360 nM in data set [6] (setting [11]). The IC50 in [7] (setting [12]) came to 1820 nM. In addition, the selectivity ratio was > 5.3 in data set [8] and > 4 in data set [9]. Besides, in data set [10], the Activity result was “Non-toxic”.
Regarding `COc1cc(/C=C2\CC/C(=C\c3ccc(OCCCn4ccnc4C)c(OC)c3)C2=O)ccc1OCCCn1ccnc1C`, the IC50 in [1] stood at 3150 nM; in [2], 660 nM; in [3] it was 1990 nM; in data set [4], 200 nM; in data set [5], 3900 nM; in [6] (setting [11]), 2010 nM. Besides, the 50% inhibitory concentration (IC50) in data set [7] (setting [12]) came to 3010 nM. The values for the selectivity ratio in data set [8] and in data set [9] were > 4 and > 2.6, respectively. Besides, the Activity entry in data set [10] is given as “Non-toxic”.
As for `COc1cc(/C=C2\CCC/C(=C\c3ccc(OCCCN4CCCCC4)c(OC)c3)C2=O)ccc1OCCCN1CCCCC1`, the concentration for half-maximal inhibition (IC50) stood at 1950 nM in data set [1]; 550 nM in data set [2]; 1650 nM in [3]; 6910 nM in data set [4]; 2050 nM in data set [5].
As for `COc1cc(/C=C2\CC/C(=C\c3ccc(OCCCCN4CCOCC4)c(OC)c3)C2=O)ccc1OCCCCN1CCOCC1`, the concentration for half-maximal inhibition (IC50) in data set [1] amounted to 720 nM; in data set [2], 360 nM; in data set [3], 620 nM; in data set [4] it was 280 nM; in [5], 670 nM; in data set [6] (setting [11]) it was 690 nM. Moreover, the IC50 in [7] (setting [12]) stood at 630 nM. Moreover, the selectivity ratio in data set [8] was > 10.8; in [9], > 11.9. Besides, the Activity entry in data set [10] was “Non-toxic”.
`O=C1/C(=C/c2ccc(OCCCCn3ccnc3)cc2)CC/C1=C\c1ccc(OCCCCn2ccnc2)cc1`: the IC50 in [6] (setting [11]) was 2040 nM; in [7] (setting [12]) it was 3540 nM. Also, the selectivity ratio in [8] was > 4.3; in data set [9], > 2.5. The Activity result in data set [10] was “Non-toxic”.
The matching figures for `COc1cc(/C=C2\CC/C(=C\c3ccc(OCCN4CCOCC4)c(OC)c3)C2=O)ccc1OCCN1CCOCC1`: 3110 nM, 2410 nM, > 2.6, > 3.4 and “Non-toxic”.
For `COc1cc(/C=C2\CC/C(=C\c3ccc(OCCCn4ccnc4)c(OC)c3)C2=O)ccc1OCCCn1ccnc1`, the IC50 result in data set [6] and in data set [7] was “Not Active” each time. For the same compound, in data set [10], the Activity entry is listed as “Non-toxic”.
`COc1cc(/C=C2\CC/C(=C\c3ccc(OCCCCn4ccnc4)c(OC)c3)C2=O)ccc1OCCCCn1ccnc1`: the IC50 was 530 nM in data set [6] (setting [11]) and 560 nM in data set [7] (setting [12]). Also, the selectivity ratio is > 14.9 in [8] and > 14 in data set [9]. Moreover, in [10], the Activity entry is “Non-toxic”.
